Laboratory results published in patent US10568868B2, “Methods and compositions for treating metabolic reprogramming disorders” (THE JOHNS HOPKINS UNIVERSITY, priority 2015, dated 2020).
Where two headings read alike, the source gives them in different places.

How the values were obtained:
mouse model of asthma = test: Mouse model of asthma (House Dust Mite antigen sensitization and rechallenge); format: in vivo, mice; settings: treated upon intratracheal rechallenge
Method: Mice were sensitized to House Dust Mite antigen (HDM) in the absence of drug. Upon intratracheal rechallenge the mice were treated with vehicle or 25.

[1] = human microsomes
Neuromyelitis Optica = test: Neuromyelitis optica model (adoptive transfer of auto-reactive T cells); parameters: species or system mice; settings: mouse, in vivo
Method: Auto-reactive T cells were adoptively transferred into mice treated with PBS or 25 and mean paralysis scores were measured.

[2] = pig microsomes
4T1-Luc tumor cells = test: 4T1-Luc mammary tumor model: myeloid cells, TAM and fibrocytes by flow cytometry; format: in vivo, BALB/c mice; settings: 1 mg/kg daily from day 7 to day 17
Method: 4T1-Luc tumor cells (0.1 million) were injected into the mammary fat pads of 8-week-old female BALB/c mice. Mice received vehicle (PBS) or 1 mg/kg 25 daily from day 7 to day 17. Anti-PD1 antibody (5 mg/Kg) was administered i.p. on day 5, 8, 12 and 17. Percentages of myeloid-derived suppressor cell (MDSC) from circulating blood were monitored on day 6, 9 and 17 by flow cytometry with CD11b and Ly6C/Ly6G. Granulocytic MDSC (G-MDSC): CD11b+ Ly6g+ Ly6c low Monocytic MDSC (Mo-MDSC): CD11b+ Ly6G-Ly6c Hi.
4T1-Luc tumor cells (0.2 million) were injected into the mammary fat pads of 8-week-old female BALB/c mice. Mice received vehicle (PBS) or 1 mg/kg compound 25 daily from day 7 to day 17. Anti-PD1 antibody (5 mg/Kg) was administered on day 5, 8, 12 and 17. Tumors were evaluated for tumor infiltrating cells on day 21. Cells were seeded on plates and golgi plug 200 ul were added to inhibit cytokine secretion for overnight (no additional stimulation). Tumor associated macrophages markers: Live/CD45+/CD11b+/F4-80+/CD8− for flow cytometry analysis. Macrophages derived from tumor. The cells were incubated with Golgi plug o.n. w/o stim. TAM: Live/CD45+/CD11b+/F4-80+/CD8−.
4T1-Luc tumor cells (0.1 million) were injected into the mammary fat pads of 8-week-old female BALB/c mice. Mice received vehicle (PBS) or 1 mg/kg 25 daily from day 7 to day 17. Anti-PD1 antibody (5 mg/Kg) was administered on day 5, 8, 12 and 17. Tumors were evaluated for tumor infiltrating cells on day 21. Fibrocytes markers: CollagenI+CD11b+CD45+ live were used for flow cytometry analysis.

EAE = test: Multiple sclerosis model (EAE, C57BL/6+MOG35-55); format: in vivo, mice
Method: FIG. 21A and FIG. 21B show the targeting of glutamine metabolism in multiple sclerosis. Animals were immunized for EAE (C57BL/6+MOG35-55). Mice were treated with vehicle or 25 either q.d. from the day of immunization (day 0, left), or b.d. from the time of disease onset (EAE disease score≥1, right).

CCOC(=O)[C@H](CCC(=O)C=[N+]=[N-])NC(=O)[C@@H](N)CC(C)C [Compound 25]
levels of HDM specific IgE (mouse model of asthma): reduced
lung pathology (mouse model of asthma): inhibited pathology
recruitment/generation of Th2 cells (mouse model of asthma): inhibited
liver microsomal stability [1]: moderate-high stability
mean paralysis scores (Neuromyelitis Optica): unexpected effectiveness
liver microsomal stability [2]: moderate-high stability
CD11b+ cells and G-MDSCs in circulating blood (4T1-Luc tumor cells; anti-PD1 antibody also given): reduced CD11b+ cells and G-MDSCs
TNF alpha in tumor associated macrophages (4T1-Luc tumor cells; tumors evaluated day 21): increased TNF alpha
tumor infiltrating fibrocytes (4T1-Luc tumor cells; tumors evaluated day 21): reduced fibrocytes
EAE disease, treatment (EAE; b.d. from the time of disease onset (EAE disease score≥1)): unexpected effectiveness
EAE disease, prevention (EAE; q.d. from the day of immunization (day 0)): unexpected effectiveness
